{"source": "patent US20120301895A1", "about": "“METHODS OF MODULATING BINDING OF SON OF SEVENLESS TO PHOSPHATIDIC ACID AND IDENTIFYING COMPOUNDS THAT MODULATE SUCH BINDING” (THE RESEARCH FOUNDATION OF STATE UNIVERSITY OF NEW YORK, priority 2007, published 2012)", "key": {"Ras": {"test_system": "Ras", "test": "Ras activation pull-down assay (Raf1 Ras binding domain) in MDA-MB-231 cells", "format": "cell-based, human", "conditions": "0.5% serum", "description": "In FIG. 14A, MDA-MB-231 cells were plated and then placed in media containing 0.5% media 24 hr later. 24 hr later, the cells were treated with either DMSO or honokiol (20 μM) as indicated for 2 hr. At this point the cells were harvested and lysates were prepared and treated with the immobilized Ras binding domain of Raf1 as in FIGS. 12A-C. Ras-GTP bound to the Raf1 binding domain was recovered and subjected to Western blot analysis using the Pan-Ras antibody. Total Ras in the cell lysates and actin levels were also examined by Western blot analysis. In FIG. 14B, MDA-MB-231 cells were plated and 24 hr later were shifted to media containing 0.5% serum. The cells were then treated with EGF (200 ng/ml) for 10 min. The cells were also treated with honokiol (20 μM) prior to the addition of EGF for the times indicated. The levels of GTP-bound Ras, total Ras, and actin were then determined as in FIG. 14A. […] Cells were then collected and Ras activation was determined using the pull-down assay as above. Levels of Ras-GTP, Sos, and Ras were determined by Western blot analysis using an antibody that recognized HA. […] Cells were then stimulated with 100 ng/ml EGF for the indicated times (min) and Ras activation was determined as in FIG. 14A. […] Cells were then stimulated with 100 ng/ml EGF for the indicated times (min) and Ras activation was determined as in FIG. 14A. […]"}, "[1]": {"test_system": "PLD activity in 786-O cells", "test": "PLD activity in 786-O cells", "format": "cell-based, human", "conditions": "no activated Ras", "excerpt": "The PLD activity elevated in response to stress in the MDA-MB-231 cells was dependent on Ras in the MDA-MB-231, and also in the Calu1, and T24 cancer cells (Shi et al., “Elevated Phospholipase D Activity in Human Cancer Cells with Activating Ras Mutations Provides Survival Signal,” Cancer Lett. 258:268-75 (2007), which is hereby incorporated by reference in its entirety). […] This is interesting in that there is an activated K-Ras gene in the MDA-MB-231 cells. Similarly, there are activating mutations to Ras genes in both the Calu1 and T24 cells. It was recently reported that the PLD activity in the T24 cells, where H-Ras is activated, is dependent on the expression of H-Ras; and the PLD activity in the Calu-1 cells, where K-Ras is activated, is dependent on the expression of K-Ras (Shi et al., “Elevated Phospholipase D Activity in Human Cancer Cells with Activating Ras Mutations Provides Survival Signal,” Cancer Lett. 258:268-75 (2007), which is hereby incorporated by reference in its entirety). […] However, it is also possible that the increased GTP bound Ras represents activation of the non-mutated Ras—either the Ras protein encoded by the non-mutated wild type allele or other Ras isoforms. In the case of the MDA-MD-231 that would mean that H-Ras was being activated or the wild type K-Ras encoded by the non-mutant allele. […]"}}}
{"smiles": "C=CCc1ccc(O)c(-c2ccc(O)c(CC=C)c2)c1", "note": "[honokiol, Honokiol]", "values": [{"measurement": "Ras activation induced by EGF", "setting": "Ras; honokiol 20 μM before EGF 200 ng/ml 10 min", "value": "suppressed"}, {"measurement": "level of GTP-bound Ras", "setting": "Ras; honokiol 20 μM, 2 hr, effect small, but reproducible", "value": "suppressed"}, {"measurement": "PLD activity", "setting": "[1]", "value": "blocks"}]}
